Converted amounts (≈) assume the structure as drawn.
Columns and labels:
[1] = tested on: Mycobacterium tuberculosis; test: In vitro actual minimum inhibitory concentration value of the compound was determined against Mycobacterium tuberculosis; format: functional
[2] = Compound was tested for cytotoxicity in Vero cells; format: cell-based; details: Chlorocebus sabaeus
[3] = Selectivity index (ratio of IC50 and MIC) value was determined; details: cercopithecidae
[4] = tested on: Mycobacterium tuberculosis; test: In vitro effective concentration of the compound causing 99%reduction in residualmycobacterium tuberculosis growth after 7 days compared to untreated control; format: functional; details: 168 h
[5] = tested on: Mycobacterium tuberculosis; test: In vitro ratio of EC90 and MIC value of the compound was determined; format: functional
[6] = tested on: Mycobacterium tuberculosis; test: In vitro effective concentration of the compound causing 90%reduction in residualmycobacterium tuberculosis growth after 7 days compared to untreated control; format: functional; details: 168 h
[7] = tested on: Mycobacterium tuberculosis; test: In vitro actual minimum inhibitory concentration value of the compound was determined against Mycobacterium tuberculosis H37Rv strain; Range is 0.015-0.125; format: functional
[8] = Compound was tested for cytotoxicity in Vero cells; Insoluble; format: cell-based, Chlorocebus sabaeus
[9] = tested on: Mycobacterium tuberculosis; test: In vitro actual minimum inhibitory concentration value against Mycobacterium tuberculosis; format: functional
[10] = tested on: Mycobacterium tuberculosis; test: In vitro minimum inhibitory concentration value against Mycobacterium tuberculosis H37Rv strain in bactec assay; format: functional
[11] = tested on: Mycobacterium tuberculosis; test: In vitro minimum inhibitory concentration value against Mycobacterium tuberculosis erdman strain in alamar assay; format: functional
[12] = tested on: Mycobacterium tuberculosis; test: In vitro minimum inhibitory concentration value against Mycobacterium tuberculosis H37Rv strain in alamar assay; format: functional

SMILES	MIC [1]	IC50 [2]	SI [3]	EC99 [4]	Ratio [5]	EC90 [6]	other results
COC(=O)c1c(C)[n+]([O-])c2ccccc2[n+]1[O-]	1.56 µg/mL (≈ 6.66 µM)	> 10 µg/mL	> 6.41				
COC(=O)c1c(Cc2ccccc2)[n+]([O-])c2ccc(OC)cc2[n+]1[O-]	0.78 µg/mL (≈ 2.29 µM)	> 62.5 µg/mL	> 80.1				
COC(=O)c1c(C)[n+]([O-])c2cc(Cl)c(Cl)cc2[n+]1[O-]	0.2 µg/mL (≈ 0.66 µM)	1.68 µg/mL (≈ 5.54 µM)	8.4				
COC(=O)c1c(C(C)(C)C)[n+]([O-])c2ccc(Cl)cc2[n+]1[O-]	> 6.25 µg/mL						
COC(=O)c1c(Cc2ccccc2)[n+]([O-])c2cc(F)c(F)cc2[n+]1[O-]	> 6.25 µg/mL						
CCOC(=O)COC(=O)c1c(CC)[n+]([O-])c2cc(Cl)c(Cl)cc2[n+]1[O-]	0.2 µg/mL (≈ 0.514 µM)	1.22 µg/mL (≈ 3.13 µM)	6.1				
COC(=O)c1c(C)[n+]([O-])c2cc(C)c(C)cc2[n+]1[O-]	3.13 µg/mL (≈ 11.9 µM)	> 62.5 µg/mL	> 20	6.15 µg/mL	0.52	1.64 µg/mL (≈ 6.25 µM)	
CCOC(=O)COC(=O)c1c(CC)[n+]([O-])c2ccc(Cl)cc2[n+]1[O-]	1.56 µg/mL (≈ 4.4 µM)	1.89 µg/mL (≈ 5.33 µM)	1.2				
COC(=O)c1c(C(C)(C)C)[n+]([O-])c2cc(C)c(C)cc2[n+]1[O-]	> 6.25 µg/mL						
COCCc1c(C(=O)OC)[n+]([O-])c2cc(Cl)c(Cl)cc2[n+]1[O-]	0.39 µg/mL (≈ 1.12 µM)	4.5 µg/mL (≈ 13 µM)	11.5	> 1.56 µg/mL	>4	> 1.56 µg/mL	
COC(=O)c1c(Cc2ccccc2)[n+]([O-])c2ccc(C)cc2[n+]1[O-]	0.39 µg/mL (≈ 1.2 µM)	56 µg/mL (≈ 173 µM)	144	3.79 µg/mL	2.9	1.13 µg/mL (≈ 3.48 µM)	
COC(=O)c1c(C)[n+]([O-])c2cc(F)c(F)cc2[n+]1[O-]	0.39 µg/mL (≈ 1.44 µM)	1.48 µg/mL (≈ 5.48 µM)	3.8				
CCc1c(C(=O)OC)[n+]([O-])c2cc(Cl)ccc2[n+]1[O-]	0.2 µg/mL (≈ 0.708 µM)	> 10 µg/mL	> 50	1.14 µg/mL	2.3	0.46 µg/mL (≈ 1.63 µM)	
CCc1c(C(=O)OC)[n+]([O-])c2cc(F)c(F)cc2[n+]1[O-]	1.56 µg/mL (≈ 5.49 µM)	1.2 µg/mL (≈ 4.22 µM)	0.77				
COC(=O)c1c(C(C)(C)C)[n+]([O-])c2ccccc2[n+]1[O-]	> 6.25 µg/mL						
COC(=O)c1c(C)[n+]([O-])c2ccc(C)cc2[n+]1[O-]	1.56 µg/mL (≈ 6.28 µM)	> 62.5 µg/mL	> 40.1	5.83 µg/mL	1.24	1.94 µg/mL (≈ 7.82 µM)	
CCc1c(C(=O)OC)[n+]([O-])c2ccccc2[n+]1[O-]	1.56 µg/mL (≈ 6.28 µM)	47 µg/mL (≈ 189 µM)	30.1	3.32 µg/mL	0.56	0.88 µg/mL (≈ 3.54 µM)	
CO[C@H]1/C=C/O[C@@]2(C)Oc3c(C)c(O)c4c(O)c(c(/C=N/N5CCN(C)CC5)c(O)c4c3C2=O)NC(=O)/C(C)=C\C=C\[C@H](C)[C@H](O)[C@@H](C)[C@@H](O)[C@@H](C)[C@H](OC(C)=O)[C@@H]1C [RIFAMPIN]							MIC [7]: 0.125 µg/mL (≈ 0.152 µM)
CCc1c(C(=O)OC)[n+]([O-])c2cc(C)ccc2[n+]1[O-]	1.56 µg/mL (≈ 5.95 µM)	> 62.5 µg/mL	> 40.1				
COC(=O)c1c(Cc2ccccc2)[n+]([O-])c2cc(C)c(C)cc2[n+]1[O-]	3.13 µg/mL (≈ 9.25 µM)						IC50 [8]: Insoluble
C=CCc1c(C(=O)OC)[n+]([O-])c2cc(Cl)c(Cl)cc2[n+]1[O-]	6.25 µg/mL (≈ 19 µM)	5.8 µg/mL (≈ 17.6 µM)	0.93				
CCc1c(C(=O)OC)[n+]([O-])c2cc(OC)ccc2[n+]1[O-]	6.25 µg/mL (≈ 22.5 µM)	39.9 µg/mL (≈ 144 µM)	6.4				
COC(=O)c1c(Cc2ccccc2)[n+]([O-])c2cc(Cl)c(Cl)cc2[n+]1[O-]							MIC [9]: 6.25 µg/mL (≈ 16.5 µM); MIC [10]: 6.25 µg/mL (≈ 16.5 µM); MIC [11]: ≤ 3.13 µg/mL; MIC [12]: ≤ 3.13 µg/mL
COC(=O)c1c(Cc2ccccc2)[n+]([O-])c2ccccc2[n+]1[O-]	0.1 µg/mL (≈ 0.322 µM)	47 µg/mL (≈ 151 µM)	470	> 2 µg/mL	1.5	0.15 µg/mL (≈ 0.483 µM)	
CCc1c(C(=O)OC)[n+]([O-])c2cc(Cl)c(Cl)cc2[n+]1[O-]	< 0.2 µg/mL	4 µg/mL (≈ 12.6 µM)	> 20	5.99 µg/mL	>3.15	0.63 µg/mL (≈ 1.99 µM)	
C=CCc1c(C(=O)OC)[n+]([O-])c2cc(C)c(C)cc2[n+]1[O-]	> 6.25 µg/mL						
COC(=O)c1c(C)[n+]([O-])c2ccc(OC)cc2[n+]1[O-]	1.56 µg/mL (≈ 5.9 µM)	52.6 µg/mL (≈ 199 µM)	33.7				
COC(=O)c1c(Cc2ccccc2)[n+]([O-])c2ccc(Cl)cc2[n+]1[O-]	0.1 µg/mL (≈ 0.29 µM)	7.6 µg/mL (≈ 22 µM)	76	0.08 µg/mL	0.01	0.0005 µg/mL (≈ 0.00145 µM)	
COC(=O)c1c(C(C)(C)C)[n+]([O-])c2cc(Cl)c(Cl)cc2[n+]1[O-]	> 6.25 µg/mL						
CCc1c(C(=O)OC)[n+]([O-])c2cc(C)c(C)cc2[n+]1[O-]	6.25 µg/mL (≈ 22.6 µM)	> 62.5 µg/mL	> 10				MIC [10]: 0.2 µg/mL (≈ 0.724 µM); MIC [11]: 0.39 µg/mL (≈ 1.41 µM); MIC [12]: 0.39 µg/mL (≈ 1.41 µM)

Source: ChEMBL document CHEMBL1144409, “Synthesis of new quinoxaline-2-carboxylate 1,4-dioxide derivatives as anti-Mycobacterium tuberculosis agents” (J Med Chem, 2005)
